Values quoted from earlier work in patent US12214218B2, “Perfusion modulated tumor dose sculpting with single dose radiotherapy” (MEMORIAL SLOAN KETTERING CANCER CENTER, priority 2019, dated 2025).
Like-named read-outs stand apart in the source and are kept apart here.

## anginex
In vivo
  half-life: 0.833 h

## CNC(=O)c1ccccc1Sc1ccc2c(/C=C/c3ccccn3)n[nH]c2c1 [axitinib]
In vivo
  average half-life: 2.5 to 6 h

## COc1cc2c(Oc3ccc4[nH]c(C)cc4c3F)ncnc2cc1OCCCN1CCCC1 [cediranib]
Plasma half-life for cediranib
  average half-life: 22 to 27 h

## Cc1cc(C)c(/C=C2\C(=O)Nc3ccccc32)[nH]1 [Semaxanib/SU5416, Semaxanib]
In vivo
  average half-life: 0.5 to 1 h

B1: rhASM: Recombinant ASM manufactured for clinical use; orphan drug status for Type B NPD (protein, UniProt P17405 47-631, looked up)
Sphingomyelin …: LALSDSRVLWAPAEAHPLSPQGHPARLHRIVPRLRDVFGWGNLTCPICKGLFTAINLGLKKEPNVARVGSVAIKLCNLLKIAPPAVCQSIVHLFEDDMVEVWRRSVLSPSEACGLLLGSTCGHWDIFSSWNISLPTVPKPPPKPPSPPAPGAPVSRILFLTDLHWDHDYLEGTDPDCADPLCCRRGSGLPPASRPGAGYWGEYSKCDLPLRTLESLLSGLGPAGPFDMVYWTGDIPAHDVWHQTRQDQLRALTTVTALVRKFLGPVPVYPAVGNHESTPVNSFPPPFIEGNHSSRWLYEAMAKAWEPWLPAEALRTLRIGGFYALSPYPGLRLISLNMNFCSRENFWLLINSTDPAGQLQWLVGELQAAEDRGDKVHIIGHIPPGHCLKSWSWNYYRIVARYENTLAAQFFGHTHVDEFEVFYDEETLSRPLAVAFLAPSATTYIGLNPGYRVYQIDGNYSGSSHVVLDHETYILNLTQANIPGAIPHWQLLYRARETYGLPNTLPTAWHNLVYRMRGDMQLFQTFWFLYHKGHPPSEPCGTPCRLATLCAQLSARADSPALCRHLMPDGSLPEAQSLWPRPLFC
Wild type mice
  toxicity at high doses: non-toxic
